From patent US12168650B2, “Crystalline forms of 3-(5-(2-hydroxy-2-methylpropoxy)-6-methylpyrazin-2-yl)-1H-indole-7-carbonitrile” (NIDO BIOSCIENCES, INC., priority 2022, dated 2024)
pIC50: −log10 of the molar value. Where “and” joins values, the source holds several entries; their conditions need not be identical. Equal values may be shown once.

What was measured:
[1] = Interconversion of polymorphs (heating, dehydration, humidity, equilibration); type: physicochemical
Description: In total, 15 forms were identified to be polymorphs or pseudo-polymorphs of the free form, including seven anhydrates, Forms A, C, H, J, K. L and O; four hydrates, Forms B, F, M and N; and three solvates, Forms D, E and I. In addition, a metastable form, Form G, and an amorphous form were also obtained.
The interconversion relation of polymorphs identified is outlined in FIG. 5.

[2] = Competitive equilibration experiments of anhydrates; settings: at both 25° C. and 50° C.
Method: Relative stability of the anhydrate Forms A, C, H and J was investigated with competitive equilibration experiments.
Relative stability of the anhydrates Forms C, K and L was investigated with competitive equilibration experiments.
To determine relative stability of anhydrates, competitive equilibration experiments were conducted in different solvent systems.
About 2 mg of each anhydrate was added to 0.3-0.4 mL saturated solutions of selected solvents. Obtained suspensions were stirred at 25° C. for 3-10 days, respectively. Solid parts (wet cakes) were isolated by centrifugation filtration and investigated by XRPD.

[3] = Solution state chemical stability; type: physicochemical; settings: for Purity: ~10 mg/ml
Method: The solution state chemical stability was carried out in acetone, MEK, and 2-MeTHF solvent systems at 50° C. and 55° C. […] The purity of the compound degraded from 99.43% to 98.27% after 48 h holding at 55° C. in MEK solvent system.
2-MeTHF/n-hep was selected as the potential solvent system for the crystallization. The solution state chemical stability was carried out in 2-MeTHF solvent systems at higher temperature (60° C. and 70° C.).

[4] = test system: LNCaP cells expressing ARR2PB-FireflyLuc and CMV-RenillaLuc; assay: LNCaP ARR2PB-FireflyLuc reporter assay; type: cell-based; settings: Homo sapiens, +/−0.5 nM DHT, 48 h at 37° C.
Method: LNCaP cells expressing ARR2PB-FireflyLuc and CMV-RenillaLuc were treated with indicated concentrations of the test compound, enzalutamide (negative control), or DHT (positive control)+/−0.5 nM DHT for 48 h at 37° C. […] signals were read with the ImageXpress Micro Confocal System. Remaining activity (antagonist mode) was calculated as % Remaining Activity=100×[(Readsample−LCave)/(HCave−LCave)] where HC is cells treated with 0.5 nM DHT only and LC is cells treated with 10 uM enzalutamide+0.5 nM DHT. Activation (agonist mode) was calculated as % Activation=100×[(ReadSample−LCave)/(HCave−LCave)] where HC is cells treated with 1 uM DHT and LC is cells treated with DMSO. Dose response curves and IC50 values were calculated using non-linear regression analysis in XLfit.

Cc1nc(-c2c[nH]c3c(C#N)cccc23)cnc1OCC(C)(C)O [Form G, 3-(5-(2-hydroxy-2-methylpropoxy)-6-methylpyrazin-2-yl)-1H-indole-7-carbonitrile]
Form conversion ([1]; equilibration in DMSO/water system at 25° C. for 6 days): converts to anhydrate Form H

Cc1nc(-c2c[nH]c3c(C#N)cccc23)cnc1OCC(C)(C)O [Form B, 3-(5-(2-hydroxy-2-methylpropoxy)-6-methylpyrazin-2-yl)-1H-indole-7-carbonitrile]
Form conversion ([1]; after dehydration): converts to Form K

Cc1nc(-c2c[nH]c3c(C#N)cccc23)cnc1OCC(C)(C)O [amorphous form, 3-(5-(2-hydroxy-2-methylpropoxy)-6-methylpyrazin-2-yl)-1H-indole-7-carbonitrile]
Form conversion ([1]; after exposure to high humidity): crystallized to Form N

Cc1nc(-c2c[nH]c3c(C#N)cccc23)cnc1OCC(C)(C)O [Form E, 3-(5-(2-hydroxy-2-methylpropoxy)-6-methylpyrazin-2-yl)-1H-indole-7-carbonitrile]
Form conversion ([1]; after heating to 100° C. by TGA and cooled to room temperature): converts to physical mixture of Form F and Form G

Cc1nc(-c2c[nH]c3c(C#N)cccc23)cnc1OCC(C)(C)O [Form D, 3-(5-(2-hydroxy-2-methylpropoxy)-6-methylpyrazin-2-yl)-1H-indole-7-carbonitrile]
Form conversion ([1]; after desolvation): converts to Form C

Cc1nc(-c2c[nH]c3c(C#N)cccc23)cnc1OCC(C)(C)O [Form A, 3-(5-(2-hydroxy-2-methylpropoxy)-6-methylpyrazin-2-yl)-1H-indole-7-carbonitrile]
Relative thermodynamic stability of anhydrates [2]: converts to Form C

Cc1nc(-c2c[nH]c3c(C#N)cccc23)cnc1OCC(C)(C)O [Form I, 3-(5-(2-hydroxy-2-methylpropoxy)-6-methylpyrazin-2-yl)-1H-indole-7-carbonitrile]
Form conversion ([1]; after heating to 140° C. by TGA and cooled to room temperature): converted to physical mixture of Form C, Form N and an unknown peak

Cc1nc(-c2c[nH]c3c(C#N)cccc23)cnc1OCC(C)(C)O [Form M, 3-(5-(2-hydroxy-2-methylpropoxy)-6-methylpyrazin-2-yl)-1H-indole-7-carbonitrile]
Form conversion ([1]; equilibration in MeOH at 25° C. for another 1 day): converts to Form B | Form conversion ([1]; wet cake from methanol, once exposed to the air): converted to Form B

Cc1nc(-c2c[nH]c3c(C#N)cccc23)cnc1OCC(C)(C)O [Form K, 3-(5-(2-hydroxy-2-methylpropoxy)-6-methylpyrazin-2-yl)-1H-indole-7-carbonitrile]
Form conversion ([1]; after melting and re-crystallization (DSC, VT-XRPD)): converts to Form L | Form conversion ([1]; exposure to 25° C. in 40-70% RH for 6 days): reverts back to Form B | Form conversion ([1]; exposure to 25° C./92% RH for 6 days): converts to hydrate Form B

Cc1nc(-c2c[nH]c3c(C#N)cccc23)cnc1OCC(C)(C)O [3-(5-(2-hydroxy-2-methylpropoxy)-6-methylpyrazin-2-yl)-1H-indole-7-carbonitrile]
Purity ([3]; 2-MeTHF, 55° C., 0 h): 99.35% a % | Purity ([3]; 2-MeTHF, 55° C., 6 h): 99.55% a % | Purity ([3]; 2-MeTHF, 55° C., 24 h): 99.62% a % | Purity ([3]; 2-MeTHF, 55° C., 48 h): 99.62% a % | Purity ([3]; 2-MeTHF, 60° C., 0 h): 99.54% a % | Purity ([3]; 2-MeTHF, 60° C., 24 h): 99.69% a % | Purity ([3]; 2-MeTHF, 60° C., 48 h): 99.56% a % | Purity ([3]; 2-MeTHF, 70° C., 0 h): 99.53% a % | Purity ([3]; 2-MeTHF, 70° C., 24 h): 99.70% a % | Purity ([3]; 2-MeTHF, 70° C., 48 h): 99.44% a % | Purity ([3]; 2-MeTHF/n-hep = 1 v/1 v, 70° C., 0 h): 98.45% a % | Purity ([3]; 2-MeTHF/n-hep = 1 v/1 v, 70° C., 24 h): 98.44% a % | Purity ([3]; 2-MeTHF/n-hep = 1 v/1 v, 70° C., 48 h): 98.44% a % | Purity ([3]; Acetone, 50° C., 0 h): 99.54% a % | Purity ([3]; Acetone, 50° C., 6 h): 99.50% a % | Purity ([3]; Acetone, 50° C., 24 h): 99.51% a % | Purity ([3]; Acetone, 50° C., 48 h): 99.69% a % | Purity ([3]; MEK, 55° C., 0 h): 99.43 a % and 99.43% a % | Purity ([3]; MEK, 55° C., 6 h): 99.23% a % | Purity ([3]; MEK, 55° C., 24 h): 98.54% a % | Purity ([3]; MEK, 55° C., 48 h): 98.27 a % and 98.27% a % | Solution state chemical stability ([3]; after 48 h holding in 2-MeTHF at 60° C. and 70° C.): stable | Solution state chemical stability ([3]; after 48 h holding in 2-MeTHF/n-hep=1v/1v at 70° C.): stable | Solution state chemical stability ([3]; after 48 h holding in both acetone and 2-MeTHF systems (50° C. and 55° C.)): stable | pIC50 [4]: 7.30
